Measurements published in ChEMBL document CHEMBL3421625, “Discovery and optimization of novel antagonists to the human neurokinin-3 receptor for the treatment of sex-hormone disorders (Part I)” (J Med Chem, 2015).
Values after ≈ are worked out from the molar mass of the structure shown.

How the values were obtained:
[1] = Lipophilicity, log D of the compound at pH 7.4; format: physicochemical; settings: buffer, read-out: logD
[2] = Solubility of the compound in PBS buffer at pH 7.4 by shake-flask method; format: physicochemical
[3] = target: Cytochrome P450 3A4 (Homo sapiens, UniProt P08684); assay: Inhibition of CYP3A4 (unknown origin) by luciferase reporter assay in presence of NADPH regeneration system; format: ADME
[4] = target: Cytochrome P450 2D6 (Homo sapiens, UniProt P10635); assay: Inhibition of CYP2D6 (unknown origin) by luciferase reporter assay in presence of NADPH regeneration system; format: ADME
[5] = target: Cytochrome P450 2C9 (Homo sapiens, UniProt P11712); assay: Inhibition of CYP2C9 (unknown origin) by luciferase reporter assay in presence of NADPH regeneration system; format: ADME
[6] = target: Cytochrome P450 2C19 (Homo sapiens, UniProt P33261); assay: Inhibition of CYP2C19 (unknown origin) by luciferase reporter assay in presence of NADPH regeneration system
[7] = target: T1, Cytochrome P450 1A2 (Homo sapiens, UniProt P05177); assay: Inhibition of CYP1A2 (unknown origin) by luciferase reporter assay in presence of NADPH regeneration system; format: ADME
T1 sequence (P05177 whole entry): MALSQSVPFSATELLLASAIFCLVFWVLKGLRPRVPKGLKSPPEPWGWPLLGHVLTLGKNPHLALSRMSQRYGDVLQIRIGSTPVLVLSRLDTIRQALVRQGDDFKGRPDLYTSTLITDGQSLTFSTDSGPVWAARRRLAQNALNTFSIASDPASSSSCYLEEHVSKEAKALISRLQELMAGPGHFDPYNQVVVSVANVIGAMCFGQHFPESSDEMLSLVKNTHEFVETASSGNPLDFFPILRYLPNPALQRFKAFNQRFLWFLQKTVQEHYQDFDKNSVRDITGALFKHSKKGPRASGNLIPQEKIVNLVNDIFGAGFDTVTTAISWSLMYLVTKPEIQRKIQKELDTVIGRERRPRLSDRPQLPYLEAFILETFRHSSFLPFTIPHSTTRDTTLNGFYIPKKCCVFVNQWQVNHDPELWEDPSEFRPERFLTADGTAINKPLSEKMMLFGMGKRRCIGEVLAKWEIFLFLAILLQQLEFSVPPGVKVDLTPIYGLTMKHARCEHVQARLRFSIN

[8] = target: T2, Neuromedin-K receptor (Homo sapiens, UniProt P29371)
T2 sequence (P29371 whole entry): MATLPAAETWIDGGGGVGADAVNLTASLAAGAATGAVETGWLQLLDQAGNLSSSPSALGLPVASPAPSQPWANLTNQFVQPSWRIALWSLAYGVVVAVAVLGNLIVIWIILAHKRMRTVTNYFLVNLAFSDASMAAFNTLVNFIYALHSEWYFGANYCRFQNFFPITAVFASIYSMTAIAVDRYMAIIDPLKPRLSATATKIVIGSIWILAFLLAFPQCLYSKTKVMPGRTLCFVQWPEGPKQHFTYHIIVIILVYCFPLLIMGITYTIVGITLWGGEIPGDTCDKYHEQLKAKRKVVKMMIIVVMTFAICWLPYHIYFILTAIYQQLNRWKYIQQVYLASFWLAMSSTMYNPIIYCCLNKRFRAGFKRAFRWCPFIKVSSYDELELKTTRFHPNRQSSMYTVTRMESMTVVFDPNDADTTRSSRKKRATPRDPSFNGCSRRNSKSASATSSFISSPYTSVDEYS

[9] = target: Voltage-gated inwardly rectifying potassium channel KCNH2 (Homo sapiens, UniProt Q12809)
Description: Inhibition of human ERG expressed in HEK293 cells after 5 mins by patch-clamp assay

[10] = target: T2, Neuromedin-K receptor; assay: biochemical
Description: Displacement of [3H]-SB222200 from recombinant human NK3R expressed in CHO cell membranes after 90 mins by scintillation counting analysis

[11] = target: T3, Substance-K receptor (Homo sapiens, UniProt P21452); assay: Displacement of [125I]-neurokinin A from human NK2R after 90 mins by scintillation counting analysis
T3 sequence (P21452 whole entry): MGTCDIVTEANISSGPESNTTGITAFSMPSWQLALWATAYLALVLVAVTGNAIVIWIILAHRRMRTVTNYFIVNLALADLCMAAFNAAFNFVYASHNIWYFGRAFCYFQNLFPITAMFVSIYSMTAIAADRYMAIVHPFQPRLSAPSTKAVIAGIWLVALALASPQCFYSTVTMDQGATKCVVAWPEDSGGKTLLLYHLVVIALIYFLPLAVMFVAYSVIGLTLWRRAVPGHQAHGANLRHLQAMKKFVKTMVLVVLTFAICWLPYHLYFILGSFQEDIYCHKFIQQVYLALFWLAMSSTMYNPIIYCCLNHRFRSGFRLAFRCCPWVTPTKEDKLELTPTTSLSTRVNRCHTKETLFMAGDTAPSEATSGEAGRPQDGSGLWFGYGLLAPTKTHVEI

[12] = target: Kappa-type opioid receptor (Homo sapiens) (UniProt P41145); assay: Inhibition of KOR (unknown origin) at 10 uM relative to control
[13] = Fraction unbound in rat plasma at 5 uM after 4 hrs by equilibrium dialysis method; format: ADME, cell-free
[14] = Apparent permeability across apical to basolateral side in human Caco2 cells in presence of 0.1% bovine serum albumin; settings: Caco-2
[15] = Apparent permeability across basolateral to apical side in human Caco2 cells in presence of 0.1% bovine serum albumin; settings: Caco-2
[16] = Total systemic clearance in Sprague-Dawley rat at 1 mg/kg, iv by LC-MS/MS analysis; format: ADME, organism-based; design: dose 1 mg/kg, route intravenous; settings: in vivo
[17] = tested on: Rattus norvegicus; assay: Unbound AUC in Sprague-Dawley rat at 1 mg/kg, iv by LC-MS/MS analysis; format: ADME, organism-based; design: dose 1 mg/kg, route intravenous; settings: in vivo
[18] = tested on: Rattus norvegicus; assay: Unbound AUC in Sprague-Dawley rat at 3 mg/kg, po by LC-MS/MS analysis; format: ADME, organism-based; design: dose 3 mg/kg, route oral; settings: in vivo
[19] = tested on: Rattus norvegicus; assay: Unbound Cmax in Sprague-Dawley rat at 3 mg/kg, po by LC-MS/MS analysis; format: ADME, organism-based; design: dose 3 mg/kg, route oral; settings: in vivo
[20] = Fraction unbound in rat brain at 5 uM after 4 hrs by equilibrium dialysis method; format: ADME, tissue-based
[21] = Ratio of unbound drug level in brain to plasma in Sprague-Dawley rat at 1 mg/kg, iv measured at 10 mins; settings: brain and plasma
[22] = Ratio of unbound drug level in brain to plasma in Sprague-Dawley rat at 1 mg/kg, iv measured at 60 mins; settings: brain and plasma
[23] = target: T4, NK-3 receptor (Macaca mulatta, UniProt Q2WGM0)
T4 sequence (Q2WGM0 whole entry): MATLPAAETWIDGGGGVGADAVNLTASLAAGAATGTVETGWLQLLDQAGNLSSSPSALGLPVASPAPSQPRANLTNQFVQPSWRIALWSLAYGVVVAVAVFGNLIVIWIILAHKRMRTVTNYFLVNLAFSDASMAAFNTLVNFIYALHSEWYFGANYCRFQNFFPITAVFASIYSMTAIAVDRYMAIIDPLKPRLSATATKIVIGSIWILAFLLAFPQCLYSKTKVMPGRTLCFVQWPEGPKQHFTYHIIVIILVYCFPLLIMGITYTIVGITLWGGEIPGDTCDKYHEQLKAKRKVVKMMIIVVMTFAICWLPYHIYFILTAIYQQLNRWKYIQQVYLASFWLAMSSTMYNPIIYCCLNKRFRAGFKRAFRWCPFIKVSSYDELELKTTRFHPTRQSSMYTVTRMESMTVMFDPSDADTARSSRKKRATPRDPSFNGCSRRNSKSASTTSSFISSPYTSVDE
Description: Displacement of [3H]-SB222200 from monkey NK3R after 90 mins by scintillation counting analysis

[24] = target: T5, Neuromedin-K receptor (Rattus norvegicus, UniProt P16177)
T5 sequence (P16177 whole entry): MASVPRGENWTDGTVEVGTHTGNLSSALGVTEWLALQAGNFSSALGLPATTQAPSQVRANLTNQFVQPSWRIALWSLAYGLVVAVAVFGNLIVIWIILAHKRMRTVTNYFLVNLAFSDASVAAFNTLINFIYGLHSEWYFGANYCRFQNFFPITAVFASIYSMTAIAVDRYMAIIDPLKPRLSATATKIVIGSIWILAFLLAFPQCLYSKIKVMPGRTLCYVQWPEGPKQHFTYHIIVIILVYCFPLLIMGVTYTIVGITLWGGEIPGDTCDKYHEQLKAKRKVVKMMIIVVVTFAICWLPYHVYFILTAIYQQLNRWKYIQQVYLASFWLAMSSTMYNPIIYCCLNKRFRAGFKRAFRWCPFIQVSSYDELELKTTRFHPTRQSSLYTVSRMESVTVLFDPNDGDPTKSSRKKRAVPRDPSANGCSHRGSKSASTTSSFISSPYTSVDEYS
Description: Displacement of [3H]-SB222200 from rat NK3R after 90 mins by scintillation counting analysis

[25] = target: Substance-P receptor (Homo sapiens, UniProt P25103)
Description: Displacement of [3H]-Substance P from human NK1R after 90 mins by scintillation counting analysis

[26] = in vivo; settings: Sprague-Dawley, rat, iv, 1 mg/kg
Description: Volume of distribution at steady state in Sprague-Dawley rat at 1 mg/kg, iv by LC-MS/MS analysis

[27] = in vivo; settings: Sprague-Dawley, rat, iv, 1 mg/kg; remark: listed apart in the source
[28] = in vivo; settings: Sprague-Dawley, rat, po, 3 mg/kg
[29] = in vivo; settings: Sprague-Dawley, rat, po, 3 mg/kg; remark: listed apart in the source
[30] = Half life in rat liver microsomes; format: ADME
[31] = target: T3, Substance-K receptor; assay: Displacement of [125I]NKA from human NK2R expressed in CHO cell membranes after 90 mins by scintillation counting analysis
[32] = target: T6, Gonadotropin-releasing hormone receptor (Homo sapiens) (UniProt P30968); assay: Inhibition of GnRH-R (unknown origin) at 10 uM relative to control
T6 sequence (whole entry): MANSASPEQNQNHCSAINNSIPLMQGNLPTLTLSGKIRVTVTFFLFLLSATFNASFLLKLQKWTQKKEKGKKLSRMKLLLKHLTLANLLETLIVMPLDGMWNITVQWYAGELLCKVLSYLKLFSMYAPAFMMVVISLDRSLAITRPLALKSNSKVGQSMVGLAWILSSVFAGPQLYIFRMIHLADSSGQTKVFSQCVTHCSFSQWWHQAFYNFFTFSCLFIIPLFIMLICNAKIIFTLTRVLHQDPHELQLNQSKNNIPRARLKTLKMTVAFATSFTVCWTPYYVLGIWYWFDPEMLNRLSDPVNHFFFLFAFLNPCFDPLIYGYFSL

[33] = target: Neuropeptide FF receptor 1 (Homo sapiens) (UniProt Q9GZQ6); assay: Inhibition of NPFF1 (unknown origin) at 10 uM relative to control
Sequence of Neuropeptide FF receptor 1 (Homo sapiens) (Q9GZQ6 whole entry): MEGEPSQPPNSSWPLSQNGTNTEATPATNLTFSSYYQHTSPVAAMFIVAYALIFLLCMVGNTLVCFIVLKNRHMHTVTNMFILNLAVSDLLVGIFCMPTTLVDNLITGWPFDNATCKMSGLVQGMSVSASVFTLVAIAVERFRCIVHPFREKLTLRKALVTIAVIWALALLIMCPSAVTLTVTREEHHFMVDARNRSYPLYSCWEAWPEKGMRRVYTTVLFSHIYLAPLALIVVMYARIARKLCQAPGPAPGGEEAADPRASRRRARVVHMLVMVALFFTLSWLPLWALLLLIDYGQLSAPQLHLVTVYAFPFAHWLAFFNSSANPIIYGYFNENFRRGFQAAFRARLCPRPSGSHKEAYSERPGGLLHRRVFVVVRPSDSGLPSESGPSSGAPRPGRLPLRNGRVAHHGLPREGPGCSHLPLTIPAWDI

Sequence of Kappa-type opioid receptor (Homo sapiens) (P41145 whole entry): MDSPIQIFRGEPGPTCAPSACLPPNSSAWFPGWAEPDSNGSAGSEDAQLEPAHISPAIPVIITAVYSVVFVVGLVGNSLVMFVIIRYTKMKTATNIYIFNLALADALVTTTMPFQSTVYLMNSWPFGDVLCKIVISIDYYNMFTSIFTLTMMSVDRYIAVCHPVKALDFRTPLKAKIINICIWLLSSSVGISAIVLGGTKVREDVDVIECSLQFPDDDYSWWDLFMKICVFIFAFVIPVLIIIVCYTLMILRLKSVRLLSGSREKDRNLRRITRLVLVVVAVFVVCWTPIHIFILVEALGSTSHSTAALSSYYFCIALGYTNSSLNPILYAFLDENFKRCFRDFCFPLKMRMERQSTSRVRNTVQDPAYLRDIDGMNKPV
Sequence of Cytochrome P450 2C9 (P11712 whole entry): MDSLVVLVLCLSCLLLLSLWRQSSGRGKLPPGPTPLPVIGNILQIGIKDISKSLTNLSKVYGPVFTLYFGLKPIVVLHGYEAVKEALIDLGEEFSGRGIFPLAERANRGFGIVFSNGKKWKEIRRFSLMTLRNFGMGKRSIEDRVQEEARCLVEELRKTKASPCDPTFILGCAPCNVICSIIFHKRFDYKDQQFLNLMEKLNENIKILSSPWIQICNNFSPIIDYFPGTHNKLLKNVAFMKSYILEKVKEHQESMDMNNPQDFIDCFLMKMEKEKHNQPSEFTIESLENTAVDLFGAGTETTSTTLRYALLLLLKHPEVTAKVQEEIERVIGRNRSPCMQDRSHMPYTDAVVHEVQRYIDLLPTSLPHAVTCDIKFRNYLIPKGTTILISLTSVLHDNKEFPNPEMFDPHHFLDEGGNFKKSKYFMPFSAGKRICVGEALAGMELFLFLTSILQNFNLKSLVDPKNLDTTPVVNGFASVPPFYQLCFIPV
Sequence of Cytochrome P450 2D6 (P10635 whole entry): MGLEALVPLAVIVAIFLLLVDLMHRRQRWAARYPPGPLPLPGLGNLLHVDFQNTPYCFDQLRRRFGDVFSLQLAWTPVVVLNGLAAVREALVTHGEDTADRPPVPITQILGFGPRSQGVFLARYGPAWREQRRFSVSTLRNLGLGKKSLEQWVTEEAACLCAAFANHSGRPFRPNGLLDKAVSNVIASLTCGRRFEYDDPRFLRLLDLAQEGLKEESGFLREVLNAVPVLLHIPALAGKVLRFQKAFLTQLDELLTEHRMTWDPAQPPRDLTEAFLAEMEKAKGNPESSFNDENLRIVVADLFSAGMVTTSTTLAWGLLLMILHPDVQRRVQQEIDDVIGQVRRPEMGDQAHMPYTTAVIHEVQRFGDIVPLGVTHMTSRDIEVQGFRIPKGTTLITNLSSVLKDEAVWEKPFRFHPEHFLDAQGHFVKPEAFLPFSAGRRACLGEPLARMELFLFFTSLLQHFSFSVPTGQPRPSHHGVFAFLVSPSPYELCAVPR
Sequence of Cytochrome P450 3A4 (P08684 whole entry): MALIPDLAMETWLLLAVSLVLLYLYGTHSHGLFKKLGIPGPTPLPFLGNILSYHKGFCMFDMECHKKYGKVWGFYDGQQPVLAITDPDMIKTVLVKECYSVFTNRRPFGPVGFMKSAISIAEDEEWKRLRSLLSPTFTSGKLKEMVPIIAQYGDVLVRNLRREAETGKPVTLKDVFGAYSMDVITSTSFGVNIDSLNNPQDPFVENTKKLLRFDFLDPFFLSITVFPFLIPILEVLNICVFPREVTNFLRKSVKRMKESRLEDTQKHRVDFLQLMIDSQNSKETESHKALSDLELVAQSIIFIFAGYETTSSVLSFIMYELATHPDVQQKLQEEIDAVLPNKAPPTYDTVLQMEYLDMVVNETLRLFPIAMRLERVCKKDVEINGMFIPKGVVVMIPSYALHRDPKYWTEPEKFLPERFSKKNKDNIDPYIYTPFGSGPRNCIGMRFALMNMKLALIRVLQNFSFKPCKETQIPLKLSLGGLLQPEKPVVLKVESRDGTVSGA
Sequence of Cytochrome P450 2C19 (P33261 whole entry): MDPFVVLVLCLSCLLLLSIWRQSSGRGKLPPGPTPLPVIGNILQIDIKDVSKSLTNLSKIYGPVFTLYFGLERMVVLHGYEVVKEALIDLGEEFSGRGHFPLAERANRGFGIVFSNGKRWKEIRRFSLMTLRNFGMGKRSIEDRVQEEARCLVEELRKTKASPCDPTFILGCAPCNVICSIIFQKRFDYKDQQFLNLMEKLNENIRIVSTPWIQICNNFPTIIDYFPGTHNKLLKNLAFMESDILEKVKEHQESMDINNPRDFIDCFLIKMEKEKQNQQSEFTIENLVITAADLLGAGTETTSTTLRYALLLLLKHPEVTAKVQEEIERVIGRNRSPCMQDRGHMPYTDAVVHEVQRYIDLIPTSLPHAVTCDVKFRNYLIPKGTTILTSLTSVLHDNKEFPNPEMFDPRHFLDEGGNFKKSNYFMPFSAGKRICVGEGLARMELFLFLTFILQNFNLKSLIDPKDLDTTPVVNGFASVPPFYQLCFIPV
Sequence of Substance-P receptor (P25103 whole entry): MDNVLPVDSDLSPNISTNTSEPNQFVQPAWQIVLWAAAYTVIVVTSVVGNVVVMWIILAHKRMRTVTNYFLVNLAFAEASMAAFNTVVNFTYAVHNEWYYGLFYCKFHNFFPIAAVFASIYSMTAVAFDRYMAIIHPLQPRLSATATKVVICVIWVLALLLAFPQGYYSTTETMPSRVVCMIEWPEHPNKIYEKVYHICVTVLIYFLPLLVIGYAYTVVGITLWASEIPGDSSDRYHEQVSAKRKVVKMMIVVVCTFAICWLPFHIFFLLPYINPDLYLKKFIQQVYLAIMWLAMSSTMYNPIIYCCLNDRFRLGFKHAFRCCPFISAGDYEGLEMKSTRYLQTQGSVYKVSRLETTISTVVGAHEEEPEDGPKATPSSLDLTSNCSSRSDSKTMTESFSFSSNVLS
Sequence of Voltage-gated inwardly rectifying potassium channel KCNH2 (Q12809 whole entry): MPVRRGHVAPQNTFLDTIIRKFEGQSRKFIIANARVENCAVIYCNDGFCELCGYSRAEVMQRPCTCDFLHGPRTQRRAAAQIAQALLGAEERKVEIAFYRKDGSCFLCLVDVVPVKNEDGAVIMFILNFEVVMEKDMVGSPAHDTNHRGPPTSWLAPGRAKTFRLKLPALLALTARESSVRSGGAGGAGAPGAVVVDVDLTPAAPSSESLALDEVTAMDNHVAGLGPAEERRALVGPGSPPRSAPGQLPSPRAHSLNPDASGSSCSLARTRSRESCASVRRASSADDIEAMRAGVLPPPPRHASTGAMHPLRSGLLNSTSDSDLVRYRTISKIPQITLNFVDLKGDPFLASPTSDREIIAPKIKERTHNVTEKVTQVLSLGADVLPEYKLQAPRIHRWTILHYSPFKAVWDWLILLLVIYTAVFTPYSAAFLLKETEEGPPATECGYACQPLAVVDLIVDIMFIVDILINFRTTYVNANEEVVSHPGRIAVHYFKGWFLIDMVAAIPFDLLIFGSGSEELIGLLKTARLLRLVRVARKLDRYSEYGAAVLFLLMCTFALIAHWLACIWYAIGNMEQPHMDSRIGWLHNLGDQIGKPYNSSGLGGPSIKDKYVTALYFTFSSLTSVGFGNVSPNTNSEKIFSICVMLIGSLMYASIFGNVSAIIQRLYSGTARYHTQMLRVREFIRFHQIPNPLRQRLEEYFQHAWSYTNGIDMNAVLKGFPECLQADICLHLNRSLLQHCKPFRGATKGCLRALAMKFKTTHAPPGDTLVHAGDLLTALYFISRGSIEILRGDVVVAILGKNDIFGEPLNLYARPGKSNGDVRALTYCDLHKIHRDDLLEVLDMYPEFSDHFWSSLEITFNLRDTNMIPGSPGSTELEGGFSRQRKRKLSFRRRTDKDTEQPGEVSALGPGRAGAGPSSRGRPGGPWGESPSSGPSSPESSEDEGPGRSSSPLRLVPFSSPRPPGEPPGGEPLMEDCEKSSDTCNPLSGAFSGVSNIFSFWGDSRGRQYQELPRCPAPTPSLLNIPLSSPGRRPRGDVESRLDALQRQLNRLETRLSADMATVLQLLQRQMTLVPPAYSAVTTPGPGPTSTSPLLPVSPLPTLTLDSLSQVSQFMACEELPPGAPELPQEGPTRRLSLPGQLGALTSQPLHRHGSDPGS

logD [1]	solubility thermodynamic [2] [µM]	IC50 [3] [µM]	IC50 [4] [µM]	IC50 [5] [µM]	IC50 [6] [µM]	IC50 [7] [µM]	IC50 [8] [µM]	Ki [10] [µM]	inhibition [12] [%]	Ki [23] [µM]	SMILES	other results
2.9	172 (≈ 70.1 µg/mL)	30	> 100	19	15	19	0.0794	0.0794			Cc1nc(-c2nnc3n2CCN(C(=O)c2ccc(-c4cccs4)cc2)C3)cs1	IC50 [9]: 27 µM
3.3	119 (≈ 51.6 µg/mL)	43	65	14	22	81	0.00398	0.00316	41	0.00631	CC(C)c1nc(-c2nnc3n2CCN(C(=O)c2ccc(-c4cccs4)cc2)[C@@H]3C)co1	Ki [11]: 10 µM; fraction unbound at 4 h, 5 µM [13]: 0.036; Papp A→B [14]: 46.4 ×10⁻⁶ cm/s; Papp B→A [15]: 43.8 ×10⁻⁶ cm/s; clearance [16]: 8.2 mL/min/kg; fAUC [17]: 9.3 µM·min; fAUC [18]: 13.6 µM·min; fCmax [19]: 58.7 nM; fraction unbound at 4 h, 5 µM [20]: 0.016; Kp uu at 10 min [21]: 0.2; Kp uu at 1 h [22]: 0.2; Ki [24]: 0.032 µM; Ki [25]: 7.94 µM; Vd [26]: 2.6 L/kg; half-life [27]: 3.5 h; Tmax [28]: 1.13 h; bioavailability [29]: 49%
3.4	1.3 (≈ 0.523 µg/mL)		< 5	< 5	< 5	< 5	0.109	0.076			N#CC(c1ccccn1)c1ccnc(N2CCN(C(=O)c3ccc(F)cc3)CC2)n1 (stereo unspecified)	half-life [30]: 0.217 h
											CSCC[C@H](NC(=O)[C@H](CC(C)C)NC(=O)CNC(=O)[C@H](Cc1ccccc1)N(C)C(=O)[C@H](Cc1ccccc1)NC(=O)[C@H](CC(=O)O)NC(=O)CCC(=O)O)C(N)=O [SENKTIDE]	Ki [31]: > 10 µM
									42	0.00631	Cc1nsc(-c2nnc3n2CCN(C(=O)c2ccc(-c4cccs4)cc2)[C@@H]3C)n1	Ki [11]: 12.6 µM; inhibition [32]: 35%; inhibition [33]: 24%; Ki [25]: 12.6 µM
											CSCC[C@H](NC(=O)[C@H](CC(C)C)NC(=O)CNC(=O)[C@@H](NC(=O)[C@H](Cc1ccccc1)NC(=O)[C@H](Cc1ccccc1)NC(=O)[C@H](CC(=O)O)NC(=O)[C@H](Cc1c[nH]cn1)NC(=O)[C@H](CCSC)NC(=O)[C@@H](N)CC(=O)O)C(C)C)C(N)=O [NEUROKININ B]	Ki [31]: 0.0158 µM

SMILES	logD [1]	solubility thermodynamic [2] [µM]	IC50 [3] [µM]	IC50 [4] [µM]	IC50 [5] [µM]	IC50 [6] [µM]	IC50 [7] [µM]	IC50 [8] [µM]	Ki [10] [µM]	inhibition [12] [%]	Ki [23] [µM]	other results
Cc1noc(-c2nnc3n2CCN(C(=O)c2ccc(-c4cccs4)cc2)[C@@H]3C)n1	2.2	185 (≈ 75.2 µg/mL)	55	> 100	40	54	32	0.0251	0.0251	23	0.0251	fraction unbound at 4 h, 5 µM [13]: 0.108; Papp A→B [14]: 57.4 ×10⁻⁶ cm/s; Papp B→A [15]: 60.4 ×10⁻⁶ cm/s; clearance [16]: 11.3 mL/min/kg; fAUC [17]: 23.3 µM·min; fAUC [18]: 46.3 µM·min; fCmax [19]: 272 nM; fraction unbound at 4 h, 5 µM [20]: 0.084; Kp uu at 10 min [21]: 0.6; Kp uu at 1 h [22]: 0.4; Ki [24]: 0.116 µM; Vd [26]: 1 L/kg; half-life [27]: 1.03 h; Tmax [28]: 0.583 h; bioavailability [29]: 66%
